Data published in patent publication US8802693B1, “Azaadamantane derivatives and methods of use” (priority 2011, dated 2014).

Legend:
[1] = test system: subjects with mild-to-moderate Alzheimer's disease; assay: Phase 2a Clinical Study A: ADAS-cog (11-item) total score; assay type: in vivo, human
Protocol: (§1) A Phase 2a proof-of-concept (POC) study in subjects with mild-to-moderate dementia of Alzheimer type was conducted. The study was a randomized, double-blind, placebo- and active-controlled, multicenter study designed to evaluate the efficacy and safety of Compound A (ABT-126) in subjects diagnosed with mild-to-moderate Alzheimer's disease, defined as meeting National Institute of Neurological and Communicative Disorders and Stroke/Alzheimer's Disease and Related Disorders Association (NINCDS/ADRDA) criteria for probable AD. […] Subjects were randomized in an equal ratio to one of four treatment groups (placebo, 5 mg Compound A, 25 mg Compound A, or donepezil) for a 12-week treatment period. The primary efficacy measure was the Alzheimer's Disease Assessment Scale—cognitive subscale (ADAS-Cog). Subjects were generally in good health and any chronic medical conditions were stable during the time of screening. Subjects were not taking other medication for Alzheimer's disease.
(§2) The study was a Phase 2, randomized, double-blind, placebo- and active-controlled, multicenter study designed to evaluate the dose-response relationship and safety of two doses of Compound A in subjects diagnosed with mild to moderate AD, defined as meeting NINCDS/ADRDA criteria for probable AD.
(§3) The study consisted of a Screening Period of up to 28 days, a 12-week treatment period, and a post-treatment period. The screening period consisted of three visits: Screening Visit 1, Screening Visit 2, and Day −1. Upon completion of Day −1 procedures, eligible subjects were randomized through an Interactive Voice Response/Interactive Web-Based (IVR/IWB) system. Subjects were randomized in an equal ratio to one of four treatment groups (placebo, 5 mg Compound A, 25 mg Compound A, or donepezil).
(§4) Each subject was instructed to take study drug once-daily in the morning for 12 weeks. Subjects randomized to donepezil took 5 mg donepezil QD for the first 4 weeks and began 10 mg donepezil QD at Week 4 through the remainder of the study. The subject and investigator were blinded to the treatment assignment throughout the study.
Subjects completed 4 visits during the treatment period at Week 2, Week 4, Week 8 and Week 12. Subjects returned to the study site for a follow-up visit approximately 2 weeks after the Week 12 or premature discontinuation visit for a safety evaluation. In addition, study site personnel contacted each subject's caregiver by telephone approximately 30 days after the subject's last dose of study drug to ascertain the subject's safety status.
(§5) The primary efficacy measure was the Alzheimer's Disease Assessment Scale-cognitive subscale (ADAS-cog). The ADAS-cog was designed to assess the cognitive impairments most common in AD. The ADAS-cog is a subscale of the ADAS, which focuses on cognitive functioning and memory. Two versions were used in the study: an 11-item version and an expanded (13-item) version. The 11-item version of the ADAS-cog was the primary endpoint measure in this study. ADAS-Cog (13-item) was administered throughout the study and the primary efficacy variable was considered the change from baseline to final evaluation on the ADAS-cog total score (11-item).
The 11-item ADAS-cog includes the following tests: Word Recall, Commands, Constructional Praxis, Naming Objects and Fingers, Ideational Praxis, Orientation, Word Recognition, Remembering Test Instructions, Comprehension of Spoken Language, Spoken Language Ability, and Word Finding Difficulty. The total score of the 11-item ADAS-cog ranges from 0 to 70, with a higher score representing greater impairment.
The primary efficacy variable was the change from baseline to the final observation on the ADAS-cog (11-item) total score. The primary efficacy analysis was carried out using an ANCOVA model with treatment and study site as the main effects and baseline score as the covariate. […]

[2] = test system: subjects with mild-to-moderate Alzheimer's disease; assay: Phase 2a Clinical Study A: ADAS-cog (13-item) total score; assay type: in vivo, human
Protocol: as §1, §2, §3, §4, §5
The 13-item ADAS-cog is comprised of the 11-item ADAS-cog with two additional items (Delayed Word Recall and a Number Cancellation Test) that are designed to assess attention and concentration. The Delayed Word Recall Test (range from 0 to 10) was an addition to the Word Recall Test to enhance sensitivity of the instrument in assessing cognition functioning on patients with mild AD. The Number Cancellation Test (range from 0 to 5) was reliable and sensitive to a broad range of dementia severity, and was recommended as a useful addition to the 11-item ADAS-cog. The total score of the 13-item ADAS-cog ranges from 0 to 85, with a higher score representing greater impairment. The ADAS-cog (13-item) was administered by a certified rater at Screening Visit 1, Screening Visit 2, and Day-1, as well as Weeks 4, 8, and 12 during the study.

[3] = donepezil 5 mg QD first 4 weeks then 10 mg QD, ANCOVA, baseline to final evaluation
[4] = donepezil 5 mg QD first 4 weeks then 10 mg QD, Change to Week 8
[5] = donepezil 5 mg QD first 4 weeks then 10 mg QD, Change to Week 12
[6] = donepezil 5 mg QD first 4 weeks then 10 mg QD, MMRM, Week 8
[7] = donepezil 5 mg QD first 4 weeks then 10 mg QD, MMRM, Week 12
[8] = donepezil 5 mg QD first 4 weeks then 10 mg QD, final evaluation, 12-week treatment
[9] = donepezil 5 mg QD, Change to Week 4
[10] = donepezil 5 mg QD, MMRM, Week 4

COc1cc2c(cc1OC)C(=O)C(CC1CCN(Cc3ccccc3)CC1)C2 (stereo not shown) [Donepezil, donepezil, reference compound]
ADAS-cog (11-Item) Total Score Difference From Placebo LS Mean (SE) of Difference [1, 3]: −1.43 | ADAS-cog (11-Item) Total Score LS Mean (SE) of Change [1, 3]: −2.11 (0.65) | ADAS-cog (11-Item) Total Score Observed Mean (SD) change [1, 4]: −1.69 (4.96) | ADAS-cog (11-Item) Total Score Observed Mean (SD) change [1, 5]: −2.91 (4.76) | ADAS-cog (11-Item) Total Score Difference From Placebo LS Mean (SE) of Difference [1, 6]: −0.70 (0.83) | ADAS-cog (11-Item) Total Score LS Mean (SE) of Change from Baseline [1, 6]: −1.26 (0.59) | ADAS-cog (11-Item) Total Score Difference From Placebo LS Mean (SE) of Difference [1, 7]: −1.57 (0.91) | ADAS-cog (11-Item) Total Score LS Mean (SE) of Change from Baseline [1, 7]: −2.40 (0.65) | ADAS-cog (11-Item) Total Score Observed Mean (SD) Final [1, 8]: 23.21 (11.53) | ADAS-cog (11-Item) Total Score Observed Mean (SD) change [1, 9]: −1.04 (3.53) | ADAS-cog (11-Item) Total Score Difference From Placebo LS Mean (SE) of Difference [1, 10]: −0.68 (0.65) | ADAS-cog (11-Item) Total Score LS Mean (SE) of Change from Baseline [1, 10]: −0.78 (0.47) | cognition relative to placebo, ADAS-cog (11-item) MMRM (in words) ([1]; donepezil treatment group): cognitive improvement relative to placebo | ADAS-cog (13-Item) Total Score Difference From Placebo LS Mean (SE) of Difference [2, 3]: −2.49 (1.04) | ADAS-cog (13-Item) Total Score LS Mean (SE) of Change [2, 3]: −3.27 (0.74) | ADAS-cog (13-Item) Total Score Observed Mean (SD) change [2, 4]: −2.66 (5.48) | ADAS-cog (13-Item) Total Score Observed Mean (SD) change [2, 5]: −4.17 (4.94) | ADAS-cog (13-Item) Total Score Difference From Placebo LS Mean (SE) of Difference [2, 6]: −1.85 (0.98) | ADAS-cog (13-Item) Total Score LS Mean (SE) of Change from Baseline [2, 6]: −2.20 (0.70) | ADAS-cog (13-Item) Total Score Difference From Placebo LS Mean (SE) of Difference [2, 7]: −2.48 (1.06) | ADAS-cog (13-Item) Total Score LS Mean (SE) of Change from Baseline [2, 7]: −3.61 (0.76) | ADAS-cog (13-Item) Total Score Observed Mean (SD) Final [2, 8]: 33.90 (13.37) | ADAS-cog (13-Item) Total Score Observed Mean (SD) change [2, 9]: −1.84 (3.94) | ADAS-cog (13-Item) Total Score Difference From Placebo LS Mean (SE) of Difference [2, 10]: −1.53 (0.74) | ADAS-cog (13-Item) Total Score LS Mean (SE) of Change from Baseline [2, 10]: −1.53 (0.53)
